Source: BindingDB's records for doi:10.1038/46290 (University of Bristol, 1999)

Target: Glutamate receptor ionotropic, kainate 2 (Homo sapiens, UniProt Q13002)
Sequence (Q13002 whole entry): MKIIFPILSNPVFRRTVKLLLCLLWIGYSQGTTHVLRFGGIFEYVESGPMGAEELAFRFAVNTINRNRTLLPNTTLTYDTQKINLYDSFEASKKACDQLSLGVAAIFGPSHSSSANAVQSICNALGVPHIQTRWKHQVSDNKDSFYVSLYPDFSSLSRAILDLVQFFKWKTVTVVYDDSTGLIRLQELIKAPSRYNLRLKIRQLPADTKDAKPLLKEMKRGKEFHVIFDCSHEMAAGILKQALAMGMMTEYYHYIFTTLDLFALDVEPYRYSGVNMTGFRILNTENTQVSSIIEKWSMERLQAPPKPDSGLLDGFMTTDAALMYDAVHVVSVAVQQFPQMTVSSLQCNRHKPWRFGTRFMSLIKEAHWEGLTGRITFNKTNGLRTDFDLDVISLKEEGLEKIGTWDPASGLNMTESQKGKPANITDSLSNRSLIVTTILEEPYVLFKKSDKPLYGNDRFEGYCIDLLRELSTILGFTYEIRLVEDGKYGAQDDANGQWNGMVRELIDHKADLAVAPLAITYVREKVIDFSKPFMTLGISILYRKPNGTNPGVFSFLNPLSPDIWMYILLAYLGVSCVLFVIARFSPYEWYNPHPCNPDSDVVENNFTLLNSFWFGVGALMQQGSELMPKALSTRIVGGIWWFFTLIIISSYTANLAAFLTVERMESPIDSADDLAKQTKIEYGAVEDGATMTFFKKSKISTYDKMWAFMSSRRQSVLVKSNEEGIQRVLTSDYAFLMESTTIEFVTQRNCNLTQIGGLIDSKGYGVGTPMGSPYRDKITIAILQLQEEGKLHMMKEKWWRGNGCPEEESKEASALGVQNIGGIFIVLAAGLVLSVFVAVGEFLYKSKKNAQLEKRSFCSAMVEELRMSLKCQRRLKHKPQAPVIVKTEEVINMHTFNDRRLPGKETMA

Structure (SMILES): O=C(O)c1ccc(C[C@H]2CC[C@H]3CN[C@H](C(=O)O)C[C@H]3C2)cc1 [LY 382884]
- Ki: > 10 µM
